Measured values taken from paper PMC5988656, “Phase I studies of AZD1208, a proviral integration Moloney virus kinase inhibitor in solid and haematological cancers” (British Journal of Cancer, 2018).

Test system: patients with recurrent or refractory AML
Assay: AML dose-escalation study: safety and tolerability (AEs, DLTs)
Format: in vivo, human
From the text: Conducted at three centres in the USA and one in Canada. Dose escalation followed a conventional 3 + 3 design. […] In the first cohort, dosing between the first and subsequent patients was staggered with a 7-day interval. Dose-escalation decisions were based on the safety and tolerability data from ≥3 evaluable patients (or six if one of the first three patients experienced a dose-limiting toxicity [DLT]).
AZD1208 could be escalated by up to 100% in subsequent cohorts until one DLT was observed, after which succeeding doses were escalated by up to 50%.
In the case of a DLT, the cohort was expanded to six patients. If a DLT occurred in ≥2 patients within a cohort, the dose was determined to be a non-tolerated dose (NTD) and dose escalation was stopped.
Grade 3 or 4 toxicities not attributable to the disease or disease-related processes under investigation, and occurring before the end of Cycle 1, were considered DLTs.
The NTD was identified as the dose at which ≥2 DLTs occurred in a given cohort.

N[C@@H]1CCCN(c2c(/C=C3\SC(=O)NC3=O)cccc2-c2ccccc2)C1 [AZD1208]
Abdominal pain (all-grade AE) (120 mg, n = 4): 1 (25.0) n (%)
Asthenia (all-grade AE) (120 mg, n = 4): 1 (25.0) n (%)
Chills (all-grade AE) (120 mg, n = 4): 0 n (%)
Cough (all-grade AE) (120 mg, n = 4): 0 n (%)
Decreased appetite (all-grade AE) (120 mg, n = 4): 0 n (%)
Dehydration (all-grade AE) (120 mg, n = 4): 0 n (%)
Diarrhoea (all-grade AE) (120 mg, n = 4): 1 (25.0) n (%)
Dyspnoea (all-grade AE) (120 mg, n = 4): 0 n (%)
Fatigue (all-grade AE) (120 mg, n = 4): 1 (25.0) n (%)
Febrile neutropenia (all-grade AE) (120 mg, n = 4): 3 (75.0) n (%)
Headache (all-grade AE) (120 mg, n = 4): 0 n (%)
Hyperglycaemia (all-grade AE) (120 mg, n = 4): 0 n (%)
Hypocalcaemia (all-grade AE) (120 mg, n = 4): 1 (25.0) n (%)
Hypokalaemia (all-grade AE) (120 mg, n = 4): 0 n (%)
Hypomagnesaemia (all-grade AE) (120 mg, n = 4): 1 (25.0) n (%)
Hypophosphataemia (all-grade AE) (120 mg, n = 4): 1 (25.0) n (%)
Hypotension (all-grade AE) (120 mg, n = 4): 1 (25.0) n (%)
Maculopapular rash (all-grade AE) (120 mg, n = 4): 0 n (%)
Nausea (all-grade AE) (120 mg, n = 4): 3 (75.0) n (%)
Oedema peripheral (all-grade AE) (120 mg, n = 4): 1 (25.0) n (%)
Patients with any AE (all-grade AE) (120 mg, n = 4): 3 (75.0) n (%)
Pneumonia (all-grade AE) (120 mg, n = 4): 1 (25.0) n (%)
Pyrexia (all-grade AE) (120 mg, n = 4): 0 n (%)
Rash (all-grade AE) (120 mg, n = 4): 0 n (%)
Renal failure acute (all-grade AE) (120 mg, n = 4): 0 n (%)
Stomatitis (all-grade AE) (120 mg, n = 4): 1 (25.0) n (%)
Vision blurred (all-grade AE) (120 mg, n = 4): 1 (25.0) n (%)
Vomiting (all-grade AE) (120 mg, n = 4): 2 (50.0) n (%)
Patients in whom AZD1208 was discontinued as a result of SAEs and AEs (240 mg (bacteremia, peristomal ulcer)): 1 n
Abdominal pain (all-grade AE) (240 mg, n = 6): 0 n (%)
Asthenia (all-grade AE) (240 mg, n = 6): 0 n (%)
Chills (all-grade AE) (240 mg, n = 6): 1 (16.7) n (%)
Cough (all-grade AE) (240 mg, n = 6): 1 (16.7) n (%)
DLT detail, action taken (240 mg, n = 6): Peristomal ulcer, drug permanently discontinued
Decreased appetite (all-grade AE) (240 mg, n = 6): 1 (16.7) n (%)
Dehydration (all-grade AE) (240 mg, n = 6): 0 n (%)
Diarrhoea (all-grade AE) (240 mg, n = 6): 1 (16.7) n (%)
Dyspnoea (all-grade AE) (240 mg, n = 6): 1 (16.7) n (%)
Fatigue (all-grade AE) (240 mg, n = 6): 1 (16.7) n (%)
Febrile neutropenia (all-grade AE) (240 mg, n = 6): 2 (33.3) n (%)
Headache (all-grade AE) (240 mg, n = 6): 0 n (%)
Hyperglycaemia (all-grade AE) (240 mg, n = 6): 0 n (%)
Hypocalcaemia (all-grade AE) (240 mg, n = 6): 1 (16.7) n (%)
Hypokalaemia (all-grade AE) (240 mg, n = 6): 0 n (%)
Hypomagnesaemia (all-grade AE) (240 mg, n = 6): 1 (16.7) n (%)
Hypophosphataemia (all-grade AE) (240 mg, n = 6): 0 n (%)
Hypotension (all-grade AE) (240 mg, n = 6): 2 (33.3) n (%)
Maculopapular rash (all-grade AE) (240 mg, n = 6): 1 (16.7) n (%)
Nausea (all-grade AE) (240 mg, n = 6): 4 (66.7) n (%)
Oedema peripheral (all-grade AE) (240 mg, n = 6): 1 (16.7) n (%)
Patients with any AE (all-grade AE) (240 mg, n = 6): 6 (100.0) n (%)
Pneumonia (all-grade AE) (240 mg, n = 6): 3 (50.0) n (%)
Pyrexia (all-grade AE) (240 mg, n = 6): 0 n (%)
Rash (all-grade AE) (240 mg, n = 6): 0 n (%)
Renal failure acute (all-grade AE) (240 mg, n = 6): 1 (16.7) n (%)
Stomatitis (all-grade AE) (240 mg, n = 6): 1 (16.7) n (%)
Vision blurred (all-grade AE) (240 mg, n = 6): 0 n (%)
Vomiting (all-grade AE) (240 mg, n = 6): 3 (50.0) n (%)
Patients in whom AZD1208 was discontinued as a result of SAEs and AEs (480 mg (vomiting, gingival pain)): 2 n
Abdominal pain (all-grade AE) (480 mg, n = 6): 1 (16.7) n (%)
Asthenia (all-grade AE) (480 mg, n = 6): 1 (16.7) n (%)
Chills (all-grade AE) (480 mg, n = 6): 0 n (%)
Cough (all-grade AE) (480 mg, n = 6): 1 (16.7) n (%)
DLT detail, action taken (480 mg, n = 6): Fatigue, drug interrupted
Decreased appetite (all-grade AE) (480 mg, n = 6): 0 n (%)
Dehydration (all-grade AE) (480 mg, n = 6): 0 n (%)
Diarrhoea (all-grade AE) (480 mg, n = 6): 3 (50.0) n (%)
Dyspnoea (all-grade AE) (480 mg, n = 6): 2 (33.3) n (%)
Fatigue (all-grade AE) (480 mg, n = 6): 4 (66.7) n (%)
Febrile neutropenia (all-grade AE) (480 mg, n = 6): 0 n (%)
Headache (all-grade AE) (480 mg, n = 6): 3 (50.0) n (%)
Hyperglycaemia (all-grade AE) (480 mg, n = 6): 2 (33.3) n (%)
Hypocalcaemia (all-grade AE) (480 mg, n = 6): 1 (16.7) n (%)
Hypokalaemia (all-grade AE) (480 mg, n = 6): 3 (50.0) n (%)
Hypomagnesaemia (all-grade AE) (480 mg, n = 6): 2 (33.3) n (%)
Hypophosphataemia (all-grade AE) (480 mg, n = 6): 2 (33.3) n (%)
Hypotension (all-grade AE) (480 mg, n = 6): 2 (33.3) n (%)
Maculopapular rash (all-grade AE) (480 mg, n = 6): 0 n (%)
Nausea (all-grade AE) (480 mg, n = 6): 1 (16.7) n (%)
Oedema peripheral (all-grade AE) (480 mg, n = 6): 3 (50.0) n (%)
Patients with any AE (all-grade AE) (480 mg, n = 6): 6 (100.0) n (%)
Pneumonia (all-grade AE) (480 mg, n = 6): 2 (33.3) n (%)
Pyrexia (all-grade AE) (480 mg, n = 6): 1 (16.7) n (%)
Rash (all-grade AE) (480 mg, n = 6): 1 (16.7) n (%)
Renal failure acute (all-grade AE) (480 mg, n = 6): 2 (33.3) n (%)
Stomatitis (all-grade AE) (480 mg, n = 6): 3 (50.0) n (%)
Vision blurred (all-grade AE) (480 mg, n = 6): 3 (50.0) n (%)
Vomiting (all-grade AE) (480 mg, n = 6): 2 (33.3) n (%)
Patients in whom AZD1208 was discontinued as a result of SAEs and AEs (700 mg (lung infection, GBS, Escherichia spp. sepsis)): 3 n
Abdominal pain (all-grade AE) (700 mg, n = 7): 3 (42.9) n (%)
Asthenia (all-grade AE) (700 mg, n = 7): 1 (14.3) n (%)
Chills (all-grade AE) (700 mg, n = 7): 1 (14.3) n (%)
Cough (all-grade AE) (700 mg, n = 7): 4 (57.1) n (%)
DLT detail, action taken (700 mg, n = 7): GBS, drug permanently discontinued
Decreased appetite (all-grade AE) (700 mg, n = 7): 2 (28.6) n (%)
Dehydration (all-grade AE) (700 mg, n = 7): 0 n (%)
Diarrhoea (all-grade AE) (700 mg, n = 7): 5 (71.4) n (%)
Dyspnoea (all-grade AE) (700 mg, n = 7): 2 (28.6) n (%)
Fatigue (all-grade AE) (700 mg, n = 7): 2 (28.6) n (%)
Febrile neutropenia (all-grade AE) (700 mg, n = 7): 1 (14.3) n (%)
Headache (all-grade AE) (700 mg, n = 7): 1 (14.3) n (%)
